Test results as given in patent publication US6686445B1, “Synthetic antineoplastic agents derived from dolastatin 15 and methods of making same” (Arizona Board of Regents, acting for and on behalf of …, priority 1997, dated 2004).
Where a SMILES comes first, the peptide text is derived from it. [ ]: non-standard residue; d: D form. The star is where a group is joined. NH(2-(2-pyridyl)ethyl) = c1ccc(CCN*)nc1; NH(4-Br-phenethyl) = Brc1ccc(CCN*)cc1; NMe2Val = CC(C)[C@@H](C(=O)*)N(C)C; X5 = O=[N+]([O-])c1ccc(CCN*)cc1; NHPhenethyl = c1ccc(CCN*)cc1; NMeV = CN[C@H](C(=O)O)C(C)C; Hiv = CC(C)[C@H](O)C(=O)O; X2 = c1ccc2ncc(N*)cc2c1; X4 = COc1ccc(CCN*)cc1OC; X3 = c1ccc2sc(N*)nc2c1; X7 = Clc1cccc(CCN*)c1; NHBn = c1ccc(CN*)cc1; X6 = Fc1ccc(CCN*)cc1; NHPh = c1ccc(N*)cc1; X8 = Clc1ccccc1CCN*

Assays:
[1] = tested on: murine P388 lymphocytic leukemia cells; assay: growth inhibition of murine P388 lymphocytic leukemia cells; type: cell-based; conditions: dosage inhibiting tumor cell growth by 50%
Protocol: (§1) All compounds synthesized were first evaluated for in vitro antitumor activity against murine P388 lymphocytic leukemia cells and against murine L1210 leukemia cells and human CA46 Burkitt lymphoma cells using techniques described by Hamel & Lin (see: HAMEL, E., and LIN, C. M., […], Interaction of combretastatin, a new plant-derived antimitotic agent, with tubulin, Biochemical Pharmacology, 32, 3864). The compounds were also evaluated in the NCI's human tumor 60-cell-line in intro primary screen as described by Monks et al. (see: MONKS, A., SCUDIERO, et al., 1991, New colorimetric cytotoxicity assay for anticancer drug screening, Journal of the National Cancer Institute, 83, 757). Data analyses were performed using methods described by Boyd and Paull (see: BOYD, M. R., et al., 1995, Some practical considerations and applications of the National Cancer Institute in vitro anticancer drug discovery screen, Drug Development Research, 34, 91). A tubulin polymerization inhibition assay was performed according to a modified version of the procedure used previously and described by Muzaffar et al. (see: MUZAFFAR, A., et al., 1990, Antitubulin effects of derivatives of 3-demethylthiocolchicine, methylthio esters of natural colchicinoids, and thioketones derived from thiocolchicine, Comparison with colchicine, Journal of Medicinal Chemistry, 33, 567) to evaluate the effects of dolastatin 15 on cellular microtubule assembly. The new assay for these compounds employed a drug-tubulin preincubation (15 min.) with 10 μM tubulin in 0.8 M glutamate at 30° C., followed by addition of GTP and incubation (20 min.) at 30° C., with tubulin polymerization monitored turbidimetrically in GILFORD recording spectrophotometers.

[2] = tested on: NCI 60-cell-line in vitro human tumor panel; conditions: read-out: Mean Panel GI50; mean ± S.D. of triplicate tests (* duplicate)
Protocol: as §1

[3] = tested on: human CA46 Burkitt lymphoma cells; conditions: read-out: Human CA46 Burkitt Lymphoma IC50; cells counted after 20 hours
Protocol: as §1

[4] = tested on: murine L1210 leukemia cells; conditions: read-out: Mouse Leukemia L1210 IC50; cells counted after 24 hours of growth
Protocol: as §1

[5] = tested on: human CA46 Burkitt lymphoma cells; assay: mitotic arrest in drug-treated CA46 Burkitt cells; type: cell-based; conditions: 80 nM drug for 20 hours, control cells 3% mitotic
Protocol: To further verify the assumption that this entire series of compounds is acting intracellularly by interfering with tubulin function, the drug-treated Burkitt cells for mitotic arrest were analyzed.

[6] = tested on: tubulin; assay: tubulin polymerization inhibition, 0.8 M glutamate at 30° C.; type: biochemical; conditions: read-out: tubulin assembly IC50
Protocol: as §1
Since these high molecular weight polymers, like microtubules, scatter light, they make it impossible to quantify drug effects by turbidimetry or centrifugation. […] (no MgCl2 added to reactions).

[7] = tested on: Erwinia carotovora; assay: antimicrobial disk susceptibility test; type: cell-based; conditions: twofold dilutions
Protocol: Antimicrobial disk susceptibility tests were performed according to the method established by the National Committee for Clinical Laboratory Standards (NCCLS, 1997). MUELLER-HINTON agar was used for susceptibility testing of Staphylococcus aureus, Enterococcus faecalis, Micrococcus luteus, Escherichia coli, Enterobacter cloacae, Bacillus subtilis, Pseudomonas aeruginosa, and Erwinia carotovora, Gonococcal Typing agar for Neisseria gonorrhoeae, and YM agar for Candida albicans and Cryptococcus neoformans. Immediately prior to susceptibility assays, compounds were reconstituted in sterile DMSO and twofold dilutions applied to sterile 6-mm disks. Zones of inhibition were read at 16 hours for bacterial cultures (except for M. luteus) and 42 hours for fungal cultures and M. luteus. MIC determinations were performed in duplicate.

Compound	Mouse Leukemia P388 ED50 [1] [ng/mL]	GI50 [2] [nM]	IC50 [3] [nM]	IC50 [4] [nM]	% Mitotic Cells [5] [%]	IC50 [6] [µM]	Minimum inhibitory concentration, Erwinia carotovora [7]
CC(C)[C@H](NC(=O)[C@H](C(C)C)N(C)C)C(=O)N(C)[C@H](C(=O)N1CCC[C@H]1C(=O)N1CCC[C@H]1C(=O)O[C@H](C(=O)Nc1ccccc1)C(C)C)C(C)C [Compound 12a] (NMe2Val-V[NMeV]PP[Hiv]-NHPh)	0.52	1.25 ± 0.48	2	3	26	26	–
CC(C)[C@H](NC(=O)[C@H](C(C)C)N(C)C)C(=O)N(C)[C@H](C(=O)N1CCC[C@H]1C(=O)N1CCC[C@H]1C(=O)O[C@H](C(=O)NCc1ccccc1)C(C)C)C(C)C [Compound 12b] (NMe2Val-V[NMeV]PP[Hiv]-NHBn)	0.42	0.79 ± 0.1	0.3	1	46	–	50-100 μg/disk
CC(C)[C@H](NC(=O)[C@H](C(C)C)N(C)C)C(=O)N(C)[C@H](C(=O)N1CCC[C@H]1C(=O)N1CCC[C@H]1C(=O)O[C@H](C(=O)NCCc1ccccc1)C(C)C)C(C)C [Compound 12c, N-[(2S)-O-[(N,N-Dimethyl-valyl)-valyl-(N-methyl-valyl)-prolyl-prolyl]-2-hydroxyisovalerlyl]-2-phenethylamide] (NMe2Val-V[NMeV]PP[Hiv]-NHPhenethyl)	0.26	1.06 ± 0.48	0.3	2	45	–	50-100 μg/disk
CC(C)[C@H](NC(=O)[C@H](C(C)C)N(C)C)C(=O)N(C)[C@H](C(=O)N1CCC[C@H]1C(=O)N1CCC[C@H]1C(=O)O[C@H](C(=O)NCCc1ccc(F)cc1)C(C)C)C(C)C [Compound 12d] (NMe2Val-V[NMeV]PP[Hiv]-X6)	0.55	0.89 ± 0.29	0.8	4	46	–	–
CC(C)[C@H](NC(=O)[C@H](C(C)C)N(C)C)C(=O)N(C)[C@H](C(=O)N1CCC[C@H]1C(=O)N1CCC[C@H]1C(=O)O[C@H](C(=O)NCCc1cccc(Cl)c1)C(C)C)C(C)C [Compound 12f] (NMe2Val-V[NMeV]PP[Hiv]-X7)	0.37	0.83 ± 0.41	2	4	38	–	–
CC(C)[C@H](NC(=O)[C@H](C(C)C)N(C)C)C(=O)N(C)[C@H](C(=O)N1CCC[C@H]1C(=O)N1CCC[C@H]1C(=O)O[C@H](C(=O)NCCc1ccccc1Cl)C(C)C)C(C)C [Compound 12g] (NMe2Val-V[NMeV]PP[Hiv]-X8)	0.33	0.81 ± 0.31	2	4	26	–	–
CC(C)[C@H](NC(=O)[C@H](C(C)C)N(C)C)C(=O)N(C)[C@H](C(=O)N1CCC[C@H]1C(=O)N1CCC[C@H]1C(=O)O[C@H](C(=O)NCCc1ccc(Br)cc1)C(C)C)C(C)C [Compound 12h] (NMe2Val-V[NMeV]PP[Hiv]-{NH(4-Br-phenethyl)})	0.36	0.81 ± 0.15	2	2	48	–	–
CC(C)[C@H](NC(=O)[C@H](C(C)C)N(C)C)C(=O)N(C)[C@H](C(=O)N1CCC[C@H]1C(=O)N1CCC[C@H]1C(=O)O[C@H](C(=O)NCCc1ccc([N+](=O)[O-])cc1)C(C)C)C(C)C [Compound 12i] (NMe2Val-V[NMeV]PP[Hiv]-X5)	0.60	0.94 ± 0.41	3	4	36	–	–
COc1ccc(CCNC(=O)[C@@H](OC(=O)[C@@H]2CCCN2C(=O)[C@@H]2CCCN2C(=O)[C@H](C(C)C)N(C)C(=O)[C@@H](NC(=O)[C@H](C(C)C)N(C)C)C(C)C)C(C)C)cc1OC [Compound 12j] (NMe2Val-V[NMeV]PP[Hiv]-X4)	0.40	1.5 ± 0.58	0.8	2	31	–	50-100 μg/disk
CC(C)[C@H](NC(=O)[C@H](C(C)C)N(C)C)C(=O)N(C)[C@H](C(=O)N1CCC[C@H]1C(=O)N1CCC[C@H]1C(=O)O[C@H](C(=O)NCCc1ccccn1)C(C)C)C(C)C [Compound 12k] (NMe2Val-V[NMeV]PP[Hiv]-{NH(2-(2-pyridyl)ethyl)})	0.40	3 ± 1.04	2	4	30	–	50-100 μg/disk
COC(=O)[C@H](Cc1ccccc1)NC(=O)[C@@H](OC(=O)[C@@H]1CCCN1C(=O)[C@@H]1CCCN1C(=O)[C@H](C(C)C)N(C)C(=O)[C@@H](NC(=O)[C@H](C(C)C)N(C)C)C(C)C)C(C)C [Compound 12m] (NMe2Val-V[NMeV]PP[Hiv]F-OMe)	0.54	3.76 ± 1.05	1	3	40	–	50-100 μg/disk
COC(=O)[C@H](CCSC)NC(=O)[C@@H](OC(=O)[C@@H]1CCCN1C(=O)[C@@H]1CCCN1C(=O)[C@H](C(C)C)N(C)C(=O)[C@@H](NC(=O)[C@H](C(C)C)N(C)C)C(C)C)C(C)C [Compound 12n] (NMe2Val-V[NMeV]PP[Hiv]M-OMe)	0.55	2.93 ± 0.93	3	3	44	–	–
COC(=O)[C@@H]1CCCN1C(=O)[C@@H](OC(=O)[C@@H]1CCCN1C(=O)[C@@H]1CCCN1C(=O)[C@H](C(C)C)N(C)C(=O)[C@@H](NC(=O)[C@H](C(C)C)N(C)C)C(C)C)C(C)C [Compound 12o] (NMe2Val-V[NMeV]PP[Hiv]P-OMe)	3.1	4.48 ± 0.44	2	4	42	–	–
CC(C)[C@H](NC(=O)[C@H](C(C)C)N(C)C)C(=O)N(C)[C@H](C(=O)N1CCC[C@H]1C(=O)N1CCC[C@H]1C(=O)O[C@H](C(=O)Nc1nc2ccccc2s1)C(C)C)C(C)C [Compound 12q] (NMe2Val-V[NMeV]PP[Hiv]-X3)	0.45	2.54	2	3	36	–	50-100 μg/disk
CC(C)[C@H](NC(=O)[C@H](C(C)C)N(C)C)C(=O)N(C)[C@H](C(=O)N1CCC[C@H]1C(=O)N1CCC[C@H]1C(=O)O[C@H](C(=O)Nc1cnc2ccccc2c1)C(C)C)C(C)C [Compound 12r] (NMe2Val-V[NMeV]PP[Hiv]-X2)	0.29	2.31	2	2	42	–	50-100 μg/disk
CC(C)[C@H](NC(=O)[C@H](C(C)C)N(C)C)C(=O)N(C)[C@H](C(=O)N1CCC[C@H]1C(=O)N1CCC[C@H]1C(=O)NCc1ccccc1)C(C)C [LU103793, N-dimethyl-L-valyl-L-valyl-N-methyl-L-valyl-L-prolyl-L-prolyl-benzamide] (NMe2Val-V[NMeV]PP-NHBn)	–	–	–	–	–	4 ± 0.6	–
